Values quoted from earlier work as cited in US20010041964A1, “PHARMACOKINETIC-BASED DRUG DESIGN TOOL AND METHOD” (priority 1998, published 2001).

What was measured:
[1] = system: rabbit intestinal tissue (duodenum, jejunum, ileum, colon); details: donor concentration per compound; for Pe (cm/s) Colon: rabbit colon; for Pe (cm/s) Duodenum: rabbit duodenum; for Pe (cm/s) Ileum: rabbit ileum; for Pe (cm/s) Jejunum: rabbit jejunum
intestinal transport = details: permeability standard
[2] = not given; remark: listed apart in the source
[3] = not given; remark: listed apart in the source
[4] = oral, human

SMILES	Pe (cm/s) Colon [1]	Pe (cm/s) Duodenum [1]	Pe (cm/s) Ileum [1]	Pe (cm/s) Jejunum [1]	Transport mechanism (intestinal transport)	k12 (Appendix 2, mass-volume model)	k21 (Appendix 2, mass-volume model)	k_elim (Appendix 2, mass-volume model)	Plasma Kinetics Fluid Volume (Table 11)	Plasma Kinetics k12 (Table 11)	Plasma Kinetics k21 (Table 11)	Plasma Kinetics kelim (Table 11)	Bioavailability of fasted patients in clinical trials ([2]; fasted patients, Phase I studies)	Cmax (mcg/ml), Clinical 1505a ([2]; human clinical study 1505a)	Tmax (hrs), Clinical 1505a ([2]; human clinical study 1505a)	Cmax (mcg/ml), Clinical 1505b ([2]; human clinical study 1505b)	Tmax (hrs), Clinical 1505b ([2]; human clinical study 1505b)	In vivo biotransformation [3]	Absorption ([3]; in vivo)	Bioavailability in humans when orally administered [4]
O=C[C@H](O)[C@@H](O)[C@H](O)[C@H](O)CO [D-glucose]	9.28e-06 cm/s	4.55e-06 cm/s	1.45e-05 cm/s	1.02e-05 cm/s	Carrier-mediated Influx															
Nc1nc2c(ncn2COC(CO)CO)c(=O)[nH]1.[Na] [Gancyclovir, 9-(1,3-dihydroxy-2-propoxymethyl)guanine, monosodium salt]						k12 = .839	k21 = .67	k_elim = .161	76,800 ml	0.839	0.670	0.161	3-20%	0.55 µg/mL	1.43 h	0.59 µg/mL	1.43 h	no in vivo biotransformation	poorly absorbed	
C[C@]12CCC(=O)C=C1CC[C@@H]1[C@@H]2[C@@H](O)C[C@@]2(C)[C@H]1CC[C@]2(O)C(=O)CO [hydrocortisone]	3.85e-06 cm/s	3e-07 cm/s	2.91e-06 cm/s	1.31e-06 cm/s																
OC[C@@H](O)[C@@H](O)[C@H](O)[C@H](O)CO [mannitol]	5.53e-06 cm/s	1.73e-06 cm/s	4.02e-06 cm/s	3.54e-06 cm/s	Passive Paracellular															approximately 10%
